In PubChem BioAssay AID248 (DTP/NCI, 2004):
“And” between values parts separate entries of the source, which are not always exact repeats. Equal entries are not always repeated. Toxic doses and inconclusive results are not listed.

Tested on: L1210 leukemia ip in BDF1 mice, survival T/C
Experiment: NCI In Vivo Anticancer Drug Screen. Data for tumor model L1210 Leukemia (intraperitoneal) in B6D2F1 (BDF1) mice
Conditions: higher = longer survival
Outline: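 Tumor cells were implanted, animals were treated, and survival was followed. The result divides the treated measurement by the vehicle-control measurement.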

[1] = endpoint: mean survival time, dose: 50.0 mg/kg/injection, schedule: Q04DX003 (ip), vehicle: Klucel (hydroxypropylcellulose) (HPC)
[2] = endpoint: mean survival time, dose: 100.0 mg/kg/injection, schedule: Q04DX003 (ip), vehicle: Klucel (hydroxypropylcellulose) (HPC)
[3] = endpoint: mean survival time, dose: 200.0 mg/kg/injection, schedule: Q04DX003 (ip), vehicle: Klucel (hydroxypropylcellulose) (HPC)

## CC[C@H]1CN2CCc3cc(OC)c(OC)cc3[C@@H]2C[C@@H]1C[C@H]1NCCc2cc(O)c(OC)cc21
endpoint: mean survival time, dose: 0.5 mg/kg/injection, schedule: Q01DX015 (ip), vehicle: saline
  T/C: 105 % of control and 119 % of control
endpoint: mean survival time, dose: 1.0 mg/kg/injection, schedule: Q01DX009 (ip), vehicle: saline
  T/C: 116 % of control
endpoint: mean survival time, dose: 1.0 mg/kg/injection, schedule: Q01DX015 (ip), vehicle: saline
  T/C: 115 % of control and 120 % of control
endpoint: mean survival time, dose: 2.0 mg/kg/injection, schedule: Q01DX009 (ip), vehicle: saline
  T/C: 115 % of control
endpoint: mean survival time, dose: 2.0 mg/kg/injection, schedule: Q## X003 (ip), vehicle: saline
  T/C: 104 % of control
endpoint: mean survival time, dose: 2.0 mg/kg/injection, schedule: Q## X024 (ip), vehicle: saline
  T/C: 114 % of control
endpoint: mean survival time, dose: 3.0 mg/kg/injection, schedule: Q01DX001 (oral), vehicle: saline
  T/C: 107 % of control
endpoint: mean survival time, dose: 3.75 mg/kg/injection, schedule: Q01DX015 (ip), vehicle: saline
  T/C: 153 % of control
endpoint: mean survival time, dose: 4.0 mg/kg/injection, schedule: Q01DX001 (ip), vehicle: saline
  T/C: 113 % of control
endpoint: mean survival time, dose: 4.0 mg/kg/injection, schedule: Q01DX009 (ip), vehicle: saline
  T/C: 115 % of control
endpoint: mean survival time, dose: 4.0 mg/kg/injection, schedule: Q01DX015 (ip), vehicle: saline
  T/C: 150 % of control
endpoint: mean survival time, dose: 4.0 mg/kg/injection, schedule: Q04DX003 (ip), vehicle: saline
  T/C: 116 % of control
endpoint: mean survival time, dose: 4.0 mg/kg/injection, schedule: Q## X002 (ip), vehicle: saline
  T/C: 103 % of control
endpoint: mean survival time, dose: 4.0 mg/kg/injection, schedule: Q## X003 (ip), vehicle: saline
  T/C: 103 % of control
endpoint: mean survival time, dose: 4.0 mg/kg/injection, schedule: Q## X008 (ip), vehicle: saline
  T/C: 116 % of control
endpoint: mean survival time, dose: 4.0 mg/kg/injection, schedule: Q## X016 (ip), vehicle: saline
  T/C: 93 % of control
endpoint: mean survival time, dose: 4.0 mg/kg/injection, schedule: Q## X024 (ip), vehicle: saline
  T/C: 122 % of control
endpoint: mean survival time, dose: 6.0 mg/kg/injection, schedule: Q01DX001 (oral), vehicle: saline
  T/C: 103 % of control
endpoint: mean survival time, dose: 8.0 mg/kg/injection, schedule: Q01DX001 (ip), vehicle: saline
  T/C: 111 % of control
endpoint: mean survival time, dose: 8.0 mg/kg/injection, schedule: Q01DX005 (ip), vehicle: saline
  T/C: 157 % of control
endpoint: mean survival time, dose: 8.0 mg/kg/injection, schedule: Q01DX009 (ip), vehicle: saline
  T/C: 112 % of control and 86 % of control
endpoint: mean survival time, dose: 8.0 mg/kg/injection, schedule: Q04DX003 (ip), vehicle: saline
  T/C: 118 % of control
endpoint: mean survival time, dose: 8.0 mg/kg/injection, schedule: Q## X002 (ip), vehicle: saline
  T/C: 119 % of control
endpoint: mean survival time, dose: 8.0 mg/kg/injection, schedule: Q## X003 (ip), vehicle: saline
  T/C: 123 % of control
endpoint: mean survival time, dose: 8.0 mg/kg/injection, schedule: Q## X008 (ip), vehicle: saline
  T/C: 111 % of control
endpoint: mean survival time, dose: 8.0 mg/kg/injection, schedule: Q## X016 (ip), vehicle: saline
  T/C: 103 % of control
endpoint: mean survival time, dose: 8.0 mg/kg/injection, schedule: Q## X024 (ip), vehicle: saline
  T/C: 101 % of control
endpoint: mean survival time, dose: 12.0 mg/kg/injection, schedule: Q01DX001 (oral), vehicle: saline
  T/C: 96 % of control
endpoint: mean survival time, dose: 15.0 mg/kg/injection, schedule: Q01DX015 (ip), vehicle: saline
  T/C: 104 % of control
endpoint: mean survival time, dose: 16.0 mg/kg/injection, schedule: Q01DX001 (ip), vehicle: saline
  T/C: 118 % of control
endpoint: mean survival time, dose: 16.0 mg/kg/injection, schedule: Q01DX005 (ip), vehicle: saline
  T/C: 162 % of control
endpoint: mean survival time, dose: 16.0 mg/kg/injection, schedule: Q01DX009 (ip), vehicle: saline
  T/C: 123 % of control
endpoint: mean survival time, dose: 16.0 mg/kg/injection, schedule: Q01DX015 (ip), vehicle: saline
  T/C: 102 % of control
endpoint: mean survival time, dose: 16.0 mg/kg/injection, schedule: Q## X002 (ip), vehicle: saline
  T/C: 112 % of control
endpoint: mean survival time, dose: 16.0 mg/kg/injection, schedule: Q## X016 (ip), vehicle: saline
  T/C: 107 % of control
endpoint: mean survival time, dose: 16.0 mg/kg/injection, schedule: Q## X024 (ip), vehicle: saline
  T/C: 86 % of control
endpoint: mean survival time, dose: 24.0 mg/kg/injection, schedule: Q01DX001 (oral), vehicle: saline
  T/C: 102 % of control
endpoint: mean survival time, dose: 32.0 mg/kg/injection, schedule: Q01DX001 (ip), vehicle: saline
  T/C: 111 % of control
endpoint: mean survival time, dose: 32.0 mg/kg/injection, schedule: Q04DX003 (ip), vehicle: saline
  T/C: 123 % of control
endpoint: mean survival time, dose: 48.0 mg/kg/injection, schedule: Q01DX001 (oral), vehicle: saline
  T/C: 121 % of control
endpoint: mean survival time, dose: 64.0 mg/kg/injection, schedule: Q01DX001 (ip), vehicle: saline
  T/C: 118 % of control
endpoint: median survival time, dose: 4.0 mg/kg/injection, schedule: Q04DX003 (ip), vehicle: alkali diluted with saline
  T/C: 106 % of control
endpoint: median survival time, dose: 8.0 mg/kg/injection, schedule: Q04DX003 (ip), vehicle: alkali diluted with saline
  T/C: 113 % of control
endpoint: median survival time, dose: 16.0 mg/kg/injection, schedule: Q04DX003 (ip), vehicle: alkali diluted with saline
  T/C: 121 % of control

## CC1=CC(C)(N=[N+]=[N-])CC(C)(C)C1 (centres undefined)
endpoint: mean survival time, dose: 37.5 mg/kg/injection, schedule: Q04DX003 (ip), vehicle: saline
  T/C: 107 % of control
endpoint: mean survival time, dose: 75.0 mg/kg/injection, schedule: Q01DX001 (ip), vehicle: saline
  T/C: 98 % of control
endpoint: mean survival time, dose: 75.0 mg/kg/injection, schedule: Q04DX003 (ip), vehicle: saline
  T/C: 100 % of control
endpoint: mean survival time, dose: 150.0 mg/kg/injection, schedule: Q01DX001 (ip), vehicle: saline
  T/C: 92 % of control
endpoint: mean survival time, dose: 150.0 mg/kg/injection, schedule: Q04DX003 (ip), vehicle: saline
  T/C: 103 % of control

## CCOC(=O)C(=Cc1ccc(C=C(C(=O)OCC)C(=O)OCC)cc1)C(=O)OCC
[1]
  T/C: 100 % of control
[2]
  T/C: 100 % of control
[3]
  T/C: 94 % of control

## CC(C)N=Cc1cc(Cl)ccc1O.CC(C)N=Cc1cc(Cl)ccc1O.[Co]
endpoint: mean survival time, dose: 50.0 mg/kg/injection, schedule: Q04DX003 (ip), vehicle: saline
  T/C: 94 % of control
endpoint: mean survival time, dose: 100.0 mg/kg/injection, schedule: Q04DX003 (ip), vehicle: saline
  T/C: 102 % of control
endpoint: mean survival time, dose: 200.0 mg/kg/injection, schedule: Q04DX003 (ip), vehicle: saline
  T/C: 105 % of control

## [O-]/[N+](=C\C=C\c1ccccc1)c1ccccc1
endpoint: mean survival time, dose: 100.0 mg/kg/injection, schedule: Q01DX009 (ip), vehicle: Klucel (hydroxypropylcellulose) (HPC)
  T/C: 100 % of control
[2]
  T/C: 103 % of control
endpoint: mean survival time, dose: 200.0 mg/kg/injection, schedule: Q01DX009 (ip), vehicle: Klucel (hydroxypropylcellulose) (HPC)
  T/C: 90 % of control
[3]
  T/C: 95 % of control
endpoint: mean survival time, dose: 400.0 mg/kg/injection, schedule: Q01DX009 (ip), vehicle: Klucel (hydroxypropylcellulose) (HPC)
  T/C: 89 % of control
endpoint: mean survival time, dose: 400.0 mg/kg/injection, schedule: Q04DX003 (ip), vehicle: Klucel (hydroxypropylcellulose) (HPC)
  T/C: 86 % of control

## CCCC(C)C(C#N)c1ccccc1 (centres undefined)
endpoint: mean survival time, dose: 25.0 mg/kg/injection, schedule: Q01DX009 (ip), vehicle: Klucel (hydroxypropylcellulose) (HPC)
  T/C: 101 % of control and 103 % of control
endpoint: mean survival time, dose: 25.0 mg/kg/injection, schedule: Q04DX003 (ip), vehicle: Klucel (hydroxypropylcellulose) (HPC)
  T/C: 95 % of control
endpoint: mean survival time, dose: 50.0 mg/kg/injection, schedule: Q01DX009 (ip), vehicle: Klucel (hydroxypropylcellulose) (HPC)
  T/C: 93 % of control and 98 % of control and 90 % of control
[1]
  T/C: 88 % of control
[2]
  T/C: 89 % of control

## COc1cccc2c1OC(COS(C)(=O)=O)CO2 (centres undefined) (tested in a mixture with another compound)
endpoint: mean survival time, dose: 100.0 mg/kg/injection, schedule: Q01DX001 (ip), vehicle: carboxymethylcellulose (CMC)
  T/C: 95 % of control
endpoint: mean survival time, dose: 200.0 mg/kg/injection, schedule: Q01DX001 (ip), vehicle: carboxymethylcellulose (CMC)
  T/C: 95 % of control
endpoint: mean survival time, dose: 400.0 mg/kg/injection, schedule: Q01DX001 (ip), vehicle: carboxymethylcellulose (CMC)
  T/C: 97 % of control
